{"source": "the supplement of paper PMC10307832", "experiment_in_all_cases": "relative viability (nuclei count vs DMSO), 5 days (fraction); higher = more cells survive", "key": {"NCI-H1734": {"test_system": "NCI-H1734", "conditions": "first compound 4 µM", "summary_of_the_method": "(§1)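 Lung cancer cell lines in 1536-well plates were dosed by pin tool the day after seeding, either with one drug alone or with a fixed anchor-drug dose plus five library-drug doses (not always all listed) in √10 steps. After 5 days, cells were fixed and their nuclei stained in one step (final 0.05% Triton X-100, 1% formaldehyde, 1 ug/ml Hoechst), then counted on 4× images. Relative viability is the nuclei count in treated wells divided by that in vehicle wells. Values are medians of duplicate plates.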"}, "NCI-H1755": {"test_system": "NCI-H1755", "summary_of_the_method": "as §1"}, "NCI-H1793": {"test_system": "NCI-H1793", "summary_of_the_method": "as §1"}, "NCI-H1944": {"test_system": "NCI-H1944", "summary_of_the_method": "as §1"}, "NCI-H2087": {"test_system": "NCI-H2087", "summary_of_the_method": "as §1"}, "NCI-H2228": {"test_system": "NCI-H2228", "summary_of_the_method": "as §1"}, "NCI-H2405": {"test_system": "NCI-H2405", "summary_of_the_method": "as §1"}, "NCI-H3122": {"test_system": "NCI-H3122", "summary_of_the_method": "as §1"}, "NCI-H460": {"test_system": "NCI-H460", "summary_of_the_method": "as §1"}, "PC-3 [JPC-3]": {"test_system": "PC-3 [JPC-3]", "summary_of_the_method": "as §1"}, "RERF-LC-KJ": {"test_system": "RERF-LC-KJ", "summary_of_the_method": "as §1"}, "UMC-11": {"test_system": "UMC-11", "summary_of_the_method": "as §1"}}, "data": [{"smiles": "COc1cc(N2CCC(C(N)=O)CC2)ccc1Nc1nc(N)c(Cl)c(Nc2ccccc2S(=O)(=O)C(C)C)n1", "note": "[HG-5-88-01] + C[C@]1(O)C[C@@H](c2nc(-c3ccc4ccc(-c5ccccc5)nc4c3)c3c(N)nccn32)C1 [Linsitinib] (partner 1 µM)", "values": [{"measurement": "relative viability", "setting": "NCI-H1734", "value": 1.02}, {"measurement": "relative viability", "setting": "NCI-H1755; first compound 0.1265 µM", "value": 0.902}, {"measurement": "relative viability", "setting": "NCI-H1755; first compound 0.4 µM", "value": 1.01}, {"measurement": "relative viability", "setting": "NCI-H1755; first compound 1.265 µM", "value": 0.983}, {"measurement": "relative viability", "setting": "NCI-H1755; first compound 4 µM", "value": 1.09}, {"measurement": "relative viability", "setting": "NCI-H1793; first compound 0.1265 µM", "value": 1.05}, {"measurement": "relative viability", "setting": "NCI-H1793; first compound 0.4 µM", "value": 0.856}, {"measurement": "relative viability", "setting": "NCI-H1793; first compound 1.265 µM", "value": 0.809}, {"measurement": "relative viability", "setting": "NCI-H1793; first compound 4 µM", "value": 1.18}, {"measurement": "relative viability", "setting": "NCI-H1944; first compound 0.04 µM", "value": 1.14}, {"measurement": "relative viability", "setting": "NCI-H1944; first compound 0.1265 µM", "value": 1.19}, {"measurement": "relative viability", "setting": "NCI-H1944; first compound 0.4 µM", "value": 1.19}, {"measurement": "relative viability", "setting": "NCI-H1944; first compound 1.265 µM", "value": 0.803}, {"measurement": "relative viability", "setting": "NCI-H1944; first compound 4 µM", "value": 1.31}, {"measurement": "relative viability", "setting": "NCI-H2087; first compound 0.04 µM", "value": 0.85}, {"measurement": "relative viability", "setting": "NCI-H2087; first compound 0.1265 µM", "value": 1.07}, {"measurement": "relative viability", "setting": "NCI-H2087; first compound 0.4 µM", "value": 0.912}, {"measurement": "relative viability", "setting": "NCI-H2087; first compound 1.265 µM", "value": 0.964}, {"measurement": "relative viability", "setting": "NCI-H2087; first compound 4 µM", "value": 0.888}, {"measurement": "relative viability", "setting": "NCI-H2228; first compound 0.04 µM", "value": 0.234}, {"measurement": "relative viability", "setting": "NCI-H2228; first compound 0.1265 µM", "value": 0.382}, {"measurement": "relative viability", "setting": "NCI-H2228; first compound 0.4 µM", "value": 0.389}, {"measurement": "relative viability", "setting": "NCI-H2228; first compound 1.265 µM", "value": 0.41}, {"measurement": "relative viability", "setting": "NCI-H2228; first compound 4 µM", "value": 0.315}, {"measurement": "relative viability", "setting": "NCI-H2405; first compound 0.04 µM", "value": 1.06}, {"measurement": "relative viability", "setting": "NCI-H2405; first compound 0.1265 µM", "value": 1.01}, {"measurement": "relative viability", "setting": "NCI-H2405; first compound 0.4 µM", "value": 0.807}, {"measurement": "relative viability", "setting": "NCI-H2405; first compound 1.265 µM", "value": 0.714}, {"measurement": "relative viability", "setting": "NCI-H2405; first compound 4 µM", "value": 1.02}, {"measurement": "relative viability", "setting": "NCI-H3122; first compound 0.04 µM", "value": 0.914}, {"measurement": "relative viability", "setting": "NCI-H3122; first compound 0.1265 µM", "value": 0.379}, {"measurement": "relative viability", "setting": "NCI-H3122; first compound 0.4 µM", "value": 0.197}, {"measurement": "relative viability", "setting": "NCI-H3122; first compound 1.265 µM", "value": 0.2}, {"measurement": "relative viability", "setting": "NCI-H3122; first compound 4 µM", "value": 0.226}, {"measurement": "relative viability", "setting": "NCI-H460; first compound 0.04 µM", "value": 0.73}, {"measurement": "relative viability", "setting": "NCI-H460; first compound 0.1265 µM", "value": 0.81}, {"measurement": "relative viability", "setting": "NCI-H460; first compound 0.4 µM", "value": 0.784}, {"measurement": "relative viability", "setting": "NCI-H460; first compound 1.265 µM", "value": 0.81}, {"measurement": "relative viability", "setting": "NCI-H460; first compound 4 µM", "value": 1.41}, {"measurement": "relative viability", "setting": "PC-3 [JPC-3]; first compound 0.04 µM", "value": 0.964}, {"measurement": "relative viability", "setting": "PC-3 [JPC-3]; first compound 0.1265 µM", "value": 0.956}, {"measurement": "relative viability", "setting": "PC-3 [JPC-3]; first compound 0.4 µM", "value": 0.947}, {"measurement": "relative viability", "setting": "PC-3 [JPC-3]; first compound 1.265 µM", "value": 0.944}, {"measurement": "relative viability", "setting": "PC-3 [JPC-3]; first compound 4 µM", "value": 0.83}, {"measurement": "relative viability", "setting": "RERF-LC-KJ; first compound 0.04 µM", "value": 0.823}, {"measurement": "relative viability", "setting": "RERF-LC-KJ; first compound 0.1265 µM", "value": 0.897}, {"measurement": "relative viability", "setting": "RERF-LC-KJ; first compound 0.4 µM", "value": 0.849}, {"measurement": "relative viability", "setting": "RERF-LC-KJ; first compound 1.265 µM", "value": 0.864}, {"measurement": "relative viability", "setting": "RERF-LC-KJ; first compound 4 µM", "value": 0.539}, {"measurement": "relative viability", "setting": "UMC-11; first compound 0.04 µM", "value": 1.03}, {"measurement": "relative viability", "setting": "UMC-11; first compound 0.1265 µM", "value": 0.931}, {"measurement": "relative viability", "setting": "UMC-11; first compound 0.4 µM", "value": 0.698}, {"measurement": "relative viability", "setting": "UMC-11; first compound 1.265 µM", "value": 1.01}, {"measurement": "relative viability", "setting": "UMC-11; first compound 4 µM", "value": 1.1}]}]}
